Assay: PK-model estimation of oat product dose and dosing interval needed to reach plasma concentration above LLOQ
Design: species or system humans
Conditions: for estimated volume of liquid oats resulting in plasma concentration above LLOQ: consumption interval every 4 h; for estimated intake volume of liquid oats needed for plasma concentration above LLOQ: intake every 8 h
Procedure: A compartmental model with two absorption compartments and a plasma compartment with linear elimination for each molecule separately described better the experimental data from the single dose intake compared to a compartmental model of a single absorption compartment (Figure S3). Parameter estimation was performed using the non-linear mixed-effects approach with lognormal inter-individual variability in all three model parameters: distribution volume over bioavailability ( [drawing 1] ), absorption rate ( [drawing 2] ), elimination rate ( [drawing 3] ), (R package nlmixr2 [34]). The results were reported as population means with coefficient of variation (Table S1). The area under the curve (AUC) and Cmax were normalized (AUCnorm) for the nmol intake of each molecule. Statistical analysis was conducted with R software environment. The compounds were compared for their PK parameters within the same product and between products using repeated ANOVA approach (lme4 package) and then by pairwise comparison adjusted for post hoc Tukey-Kramer honestly significant difference. All statistical analyses were performed on log- transformed data. Based on the PK models built on the single-dose data, a linear relationship ( [drawing 4] was derived between dose and dosing interval (intake frequency, [drawing 5] ) to estimate the AVA intake needed to reach an average concentration (at steady state) that is measurable above lower limit of quantification (LLOQ). To translate the intake of AVAs from the linear relationship (Dose) to corresponding oat flake product intake, we estimated the content of AVAs in different products using reported data from the literature and assigned values, where possible. For the flakes, information in literature was available for AVA 2c, AVA 2p and AVA 2 f. Therefore, an average value for these compounds per food product was assigned while for the oat drink and for the less known AVAs; AVA 2pd and AVA 2fd, an average value based on the measured products in our laboratory was used (Table S2). In the second phase of the intervention, following a repeated dosing period of 4 days, plasma concentrations were determined over a dosing interval recorded by the individuals and were compared to their corresponding predicted values in blood. This comparison allowed for an assessment of the model’s accuracy in predicting AVAs’ behavior under repeated dosing conditions. Only experimental data above the limit of quantification were used for the comparison. Further, the data were tested for outliers with the interquartile range (IQR) approach and five observations were considered outliers and were removed.

Row | estimated volume of liquid oats resulting in plasma concentration above LLOQ | estimated intake volume of liquid oats needed for plasma concentration above LLOQ [mL] | average amount of oat flakes needed to reach measurable plasma levels (above LLOQ) (oat flakes consumed every 4 h) [g] | amount of oat flakes needed to reach measurable plasma levels (above LLOQ) (oat flakes consumed every 8 h) [g] | SMILES
1 | about 30 mL | 65 |  |  | O=C(/C=C/c1ccc(O)c(O)c1)Nc1ccc(O)cc1C(=O)O [AVA 2c]
2 |  |  | 235 | 470 | COc1cc(/C=C/C(=O)Nc2ccc(O)cc2C(=O)O)ccc1O [AVA 2f]
3 | about 30 mL | 65 |  |  | O=C(/C=C/c1ccc(O)cc1)Nc1ccc(O)cc1C(=O)O [AVA 2p]

From article PMC12418703, “Avenanthramides and avenacosides as biomarkers of oat intake: a pharmacokinetic study of solid and liquid oat consumption under single and repeated dose conditions” (Nutrition Journal, 2025)
